Values quoted from earlier work, collected in US12115179B2, “Pharmaceutical composition, methods for treating and uses thereof” (Boehringer Ingelheim International GmbH, priority 2009, dated 2024).

Conditions: metformin on its own, in the diabetic

Which “average improvement in the HbA1c value” does the source give for `CN(C)C(=N)N=C(N)N` [Met, metformin] here?
Its value is 1.0-1.5%.
